System: panel of haematalogical cancer cell lines
Test: Compound A with BTK inhibitors, 72-hour in vitro proliferation assays
Assay type: cell-based
Conditions: combination Compound A × listed BTK inhibitor, 72-hour proliferation

## CC#CC(=O)N1CC[C@@H](n2c(=O)n(-c3ccc(Oc4ccccc4)cc3)c3c(N)ncnc32)C1 [Tirabrutinib]
HBL-1 cells
  Best CI: 0.06
  Best CI Level: 60
  Bliss Volume: 3.09
  HSA volume: 8.94
  Loewe Volume: 8.17
  Synergy Score: 7.02
OCI-Ly10 cells
  Best CI: 0.63
  Best CI Level: 80
  Bliss Volume: 0.21
  HSA volume: 3.22
  Loewe Volume: 1.63
  Synergy Score: 2.72
SU-DHL-2 cells
  Best CI: 0.42
  Best CI Level: 20
  Bliss Volume: 0.39
  HSA volume: −0.97
  Loewe Volume: 1.23
  Synergy Score: 0.98
SU-DHL-4 cells
  Best CI: 0.84
  Best CI Level: 20
  Bliss Volume: 1.52
  HSA volume: −2.97
  Loewe Volume: −0.81
  Synergy Score: 1.10
SU-DHL-8 cells
  Best CI: 0.45
  Best CI Level: 20
  Bliss Volume: 4.13
  HSA volume: −6.01
  Loewe Volume: −3.72
  Synergy Score: 0.60
TMD8 cells
  Best CI: 0.87
  Best CI Level: 20
  Bliss Volume: 1.28
  HSA volume: 3.05
  Loewe Volume: 1.96
  Synergy Score: 2.92
U-2932 cells
  Best CI: 0.62
  Best CI Level: 65
  Bliss Volume: 1.92
  HSA volume: 4.85
  Loewe Volume: 4.66
  Synergy Score: 3.69

## C=CC(=O)N1CCC([C@@H]2CCNc3c(C(N)=O)c(-c4ccc(Oc5ccccc5)cc4)nn32)CC1 [Zanubrutinib]
HBL-1 cells
  Best CI: 0.05
  Best CI Level: 55
  Bliss Volume: 5.13
  HSA volume: 10.34
  Loewe Volume: 9.75
  Synergy Score: 8.18
OCI-Ly10 cells
  Best CI: 0.50
  Best CI Level: 80
  Bliss Volume: 1.36
  HSA volume: 3.82
  Loewe Volume: 3.55
  Synergy Score: 4.04
SU-DHL-2 cells
  Best CI: 0.86
  Best CI Level: 40
  Bliss Volume: 1.42
  HSA volume: 0.63
  Loewe Volume: 1.23
  Synergy Score: 0.72
SU-DHL-4 cells
  Best CI: 1.06
  Best CI Level: 20
  Bliss Volume: 0.06
  HSA volume: −4.15
  Loewe Volume: −4.24
  Synergy Score: 0.76
SU-DHL-8 cells
  Best CI: 0.52
  Best CI Level: 30
  Bliss Volume: −5.98
  HSA volume: −5.32
  Loewe Volume: −5.81
  Synergy Score: 0.66
TMD8 cells
  Best CI: 0.07
  Best CI Level: 80
  Bliss Volume: 2.31
  HSA volume: 4.24
  Loewe Volume: 3.33
  Synergy Score: 3.91
U-2932 cells
  Best CI: 0.54
  Best CI Level: 65
  Bliss Volume: 5.21
  HSA volume: 7.71
  Loewe Volume: 7.67
  Synergy Score: 4.92

From US11931424B2, “Combination MCL-1 inhibitors with anti-body drug conjugates” (Gilead Sciences, Inc., priority 2021, dated 2024)
